Reference: patent US6915969B2, “Method and installation for making flour from ozone-treated grains” (Green Technologies Sarl, priority 1999, dated 2005)

Experiment: reduction of pesticide contaminants
Set-up: species or system wheat
Settings: after treatment by the method of the invention (ozone)
Excerpt: A reduction of about 80% in the content of Chlorpyriphosmethyl (a pesticide generally used in the case of wheat) was thus observed, thus leading certainly to a product which is perfectly acceptable from the point of view of the current food standards.

## COP(=S)(OC)Oc1nc(Cl)c(Cl)cc1Cl [Chlorpyriphosmethyl]
  reduction in the content of Chlorpyriphosmethyl: about 80%
